# Experimental data from PubChem BioAssay (NCI).
#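 GI50 is the concentration that inhibits growth by half. At the TGI there is no net growth.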
# Key:
# Assay in all cases: growth of human tumour cells (NCI), 384-well format
# 786-0 renal = system: 786-0 renal
# A498 renal = system: A498 renal
# A549 NSCLC = system: A549 NSCLC
# ACHN renal = system: ACHN renal
# BT-549 breast = system: BT-549 breast
# CAKI-1 renal = system: CAKI-1 renal
# CCRF-CEM leukemia = system: CCRF-CEM leukemia
# DU-145 prostate = system: DU-145 prostate
# EKVX NSCLC = system: EKVX NSCLC
# HCT-116 colon = system: HCT-116 colon
# HCT-15 colon = system: HCT-15 colon
# HL-60(TB) leukemia = system: HL-60(TB) leukemia
# HOP-62 NSCLC = system: HOP-62 NSCLC
# HOP-92 NSCLC = system: HOP-92 NSCLC
# HS 578T breast = system: HS 578T breast
# HT29 colon = system: HT29 colon
# IGROV1 ovarian = system: IGROV1 ovarian
# K-562 leukemia = system: K-562 leukemia
# KM12 colon = system: KM12 colon
# LOX IMVI melanoma = system: LOX IMVI melanoma
# M14 melanoma = system: M14 melanoma
# MALME-3M melanoma = system: MALME-3M melanoma
# MCF7 breast = system: MCF7 breast
# MDA-MB-231 breast = system: MDA-MB-231 breast
# MDA-MB-435 melanoma = system: MDA-MB-435 melanoma
# MDA-MB-468 breast = system: MDA-MB-468 breast
# MOLT-4 leukemia = system: MOLT-4 leukemia
# NCI-H226 lung = system: NCI-H226 lung
# NCI-H23 lung = system: NCI-H23 lung
# NCI-H322M lung = system: NCI-H322M lung
# NCI-H522 lung = system: NCI-H522 lung
# NCI/ADR-RES ovarian = system: NCI/ADR-RES ovarian
# OVCAR-3 ovarian = system: OVCAR-3 ovarian
# OVCAR-4 ovarian = system: OVCAR-4 ovarian
# OVCAR-5 ovarian = system: OVCAR-5 ovarian
# OVCAR-8 ovarian = system: OVCAR-8 ovarian
# PC-3 prostate = system: PC-3 prostate
# RPMI-8226 leukemia = system: RPMI-8226 leukemia
# RXF 393 renal = system: RXF 393 renal
# SF-268 CNS = system: SF-268 CNS
# SF-295 CNS = system: SF-295 CNS
# SF-539 CNS = system: SF-539 CNS
# SK-MEL-2 melanoma = system: SK-MEL-2 melanoma
# SK-MEL-28 melanoma = system: SK-MEL-28 melanoma
# SK-OV-3 ovarian = system: SK-OV-3 ovarian
# SN12C renal = system: SN12C renal
# SNB-19 CNS = system: SNB-19 CNS
# SNB-75 CNS = system: SNB-75 CNS
# SW-620 colon = system: SW-620 colon
# T-47D breast = system: T-47D breast
# TK-10 renal = system: TK-10 renal
# U251 glioblastoma = system: U251 glioblastoma
# UACC-257 melanoma = system: UACC-257 melanoma
# UACC-62 melanoma = system: UACC-62 melanoma
# UO-31 renal = system: UO-31 renal
smiles,measurement,setting,value
CN(N=O)C(=O)N[C@@H](C=O)[C@@H](O)[C@H](O)[C@H](O)CO,GI50,786-0 renal,> 100 µM
same,TGI,786-0 renal,> 100 µM
same,GI50,A498 renal,> 100 µM
same,TGI,A498 renal,> 100 µM
same,GI50,A549 NSCLC,> 100 µM
same,TGI,A549 NSCLC,> 100 µM
same,GI50,ACHN renal,> 100 µM
same,TGI,ACHN renal,> 100 µM
same,GI50,BT-549 breast,> 100 µM
same,TGI,BT-549 breast,> 100 µM
same,GI50,CAKI-1 renal,> 100 µM
same,TGI,CAKI-1 renal,> 100 µM
same,GI50,CCRF-CEM leukemia,> 100 µM
same,TGI,CCRF-CEM leukemia,> 100 µM
same,GI50,DU-145 prostate,> 100 µM
same,TGI,DU-145 prostate,> 100 µM
same,GI50,EKVX NSCLC,> 100 µM
same,TGI,EKVX NSCLC,> 100 µM
same,GI50,HCT-116 colon,> 100 µM
same,TGI,HCT-116 colon,> 100 µM
same,GI50,HCT-15 colon,> 100 µM
same,TGI,HCT-15 colon,> 100 µM
same,GI50,HL-60(TB) leukemia,> 100 µM
same,TGI,HL-60(TB) leukemia,> 100 µM
same,GI50,HOP-62 NSCLC,> 100 µM
same,TGI,HOP-62 NSCLC,> 100 µM
same,GI50,HOP-92 NSCLC,> 100 µM
same,TGI,HOP-92 NSCLC,> 100 µM
same,GI50,HS 578T breast,> 100 µM
same,TGI,HS 578T breast,> 100 µM
same,GI50,HT29 colon,> 100 µM
same,TGI,HT29 colon,> 100 µM
same,GI50,IGROV1 ovarian,> 100 µM
same,TGI,IGROV1 ovarian,> 100 µM
same,GI50,K-562 leukemia,> 100 µM
same,TGI,K-562 leukemia,> 100 µM
same,GI50,KM12 colon,> 100 µM
same,TGI,KM12 colon,> 100 µM
same,GI50,LOX IMVI melanoma,> 100 µM
same,TGI,LOX IMVI melanoma,> 100 µM
same,GI50,M14 melanoma,> 100 µM
same,TGI,M14 melanoma,> 100 µM
same,GI50,MALME-3M melanoma,> 100 µM
same,TGI,MALME-3M melanoma,> 100 µM
same,GI50,MCF7 breast,> 100 µM
same,TGI,MCF7 breast,> 100 µM
same,GI50,MDA-MB-231 breast,> 100 µM
same,TGI,MDA-MB-231 breast,> 100 µM
same,GI50,MDA-MB-435 melanoma,> 100 µM
same,TGI,MDA-MB-435 melanoma,> 100 µM
same,GI50,MDA-MB-468 breast,> 100 µM
same,TGI,MDA-MB-468 breast,> 100 µM
same,GI50,MOLT-4 leukemia,> 100 µM
same,TGI,MOLT-4 leukemia,> 100 µM
same,GI50,NCI-H226 lung,> 100 µM
same,TGI,NCI-H226 lung,> 100 µM
same,GI50,NCI-H23 lung,> 100 µM
same,TGI,NCI-H23 lung,> 100 µM
same,GI50,NCI-H322M lung,> 100 µM
same,TGI,NCI-H322M lung,> 100 µM
same,GI50,NCI-H522 lung,> 100 µM
same,TGI,NCI-H522 lung,> 100 µM
same,GI50,NCI/ADR-RES ovarian,> 100 µM
same,TGI,NCI/ADR-RES ovarian,> 100 µM
same,GI50,OVCAR-3 ovarian,> 100 µM
same,TGI,OVCAR-3 ovarian,> 100 µM
same,GI50,OVCAR-4 ovarian,> 100 µM
same,TGI,OVCAR-4 ovarian,> 100 µM
same,GI50,OVCAR-5 ovarian,> 100 µM
same,TGI,OVCAR-5 ovarian,> 100 µM
same,GI50,OVCAR-8 ovarian,> 100 µM
same,TGI,OVCAR-8 ovarian,> 100 µM
same,GI50,PC-3 prostate,> 100 µM
same,TGI,PC-3 prostate,> 100 µM
same,GI50,RPMI-8226 leukemia,> 100 µM
same,TGI,RPMI-8226 leukemia,> 100 µM
same,GI50,RXF 393 renal,> 100 µM
same,TGI,RXF 393 renal,> 100 µM
same,GI50,SF-268 CNS,> 100 µM
same,TGI,SF-268 CNS,> 100 µM
same,GI50,SF-295 CNS,> 100 µM
same,TGI,SF-295 CNS,> 100 µM
same,GI50,SF-539 CNS,> 100 µM
same,TGI,SF-539 CNS,> 100 µM
same,GI50,SK-MEL-2 melanoma,> 100 µM
same,TGI,SK-MEL-2 melanoma,> 100 µM
same,GI50,SK-MEL-28 melanoma,> 100 µM
same,TGI,SK-MEL-28 melanoma,> 100 µM
same,GI50,SK-OV-3 ovarian,> 100 µM
same,TGI,SK-OV-3 ovarian,> 100 µM
same,GI50,SN12C renal,> 100 µM
same,TGI,SN12C renal,> 100 µM
same,GI50,SNB-19 CNS,> 100 µM
same,TGI,SNB-19 CNS,> 100 µM
same,GI50,SNB-75 CNS,> 100 µM
same,TGI,SNB-75 CNS,> 100 µM
same,GI50,SW-620 colon,> 100 µM
same,TGI,SW-620 colon,> 100 µM
same,GI50,T-47D breast,> 100 µM
same,TGI,T-47D breast,> 100 µM
same,GI50,TK-10 renal,> 100 µM
same,TGI,TK-10 renal,> 100 µM
same,GI50,U251 glioblastoma,> 100 µM
same,TGI,U251 glioblastoma,> 100 µM
same,GI50,UACC-257 melanoma,> 100 µM
same,TGI,UACC-257 melanoma,> 100 µM
same,GI50,UACC-62 melanoma,> 100 µM
same,TGI,UACC-62 melanoma,> 100 µM
same,GI50,UO-31 renal,> 100 µM
same,TGI,UO-31 renal,> 100 µM
